Test results from publication PMC5833389 (Oncogenesis, 2018).
Values joined by “and” are separate entries in the source; they are usually repeats but may differ in a detail not shown here. Equal entries are not always repeated. Where two headings read alike, the source gives them in different places.

Columns and labels:
[1] = target: T1, FES (Homo sapiens, UniProt P07332); experiment: FES kinase assay, Z'-LYTE; assay type: biochemical
T1 construct: purchased Invitrogen/Life Technologies
Protocol: (§1) IC50 values on FAK and PYK2 were determined using the DELFIA® format, using kinase proteins obtained from Invitrogen (#PV3832, #PV4567) and biotinylated poly(Glu,Tyr) as substrate. Incubation in the presence of test compound was followed by detection of phosphorylated substrate using streptavidin-coated plates and Eu-N1 anti-phospho-Tyr PT66 antibody (#AD0040, VICTOR™ reader, both Perkin Elmer). Data were analyzed using GraphPad Prism. […] Data was fitted by iterative calculation using a sigmoidal curve analysis with variable Hill slope. In independent assays, IC50 values were determined using Z'-LYTE® technology, which is based on FRET (Invitrogen/Life Technologies). Selectivity was determined on the Invitrogen kinase panel at 1 µmol/L.

[2] = Single-dose pharmacokinetics in nude mice; assay type: in vivo
Text: (§2) Plasma and homogenized tumor samples were extracted and analyzed by LC-MS. Detection was at unit resolution with a MRM 589.2/474.8. All calibration and QC samples were with ±20% (p.o.) and ±30% (i.v.) of the nominal value in the linear range of the calibration fitted with a linear regression and 1/x^2 weighting.

[3] = Drug concentrations in plasma and tumor of PC-3 tumor-bearing mice; assay type: in vivo; details: BomTac:NMRI-Foxn1^nu, mouse; for concentration at 24 h: oral
Text: as §2

[4] = target: T2, PTK2B/PYK2 (Homo sapiens, UniProt Q14289); experiment: PYK2 kinase assay, DELFIA format; assay type: biochemical
T2 construct: purchased Invitrogen/Life Technologies
Protocol: as §1, with “Technologies).” for “Technologies). Selectivity was determined on the Invitrogen kinase panel at 1 µmol/L.”

[5] = target: T2, PTK2B/PYK2; experiment: PYK2 kinase assay, Z'-LYTE (FRET); assay type: biochemical
Protocol: as §1, with “Technologies).” for “Technologies). Selectivity was determined on the Invitrogen kinase panel at 1 µmol/L.”

[6] = system: PC-3 prostate carcinoma xenograft; experiment: Subcutaneous xenograft efficacy; assay type: in vivo, mice
Protocol: (§3) For efficacy studies, 1 × 10^7 MIA PaCa-2 or 1 × 10^6 BxPC-3 cells (with Matrigel® 50:50) were injected subcutaneously into the right flank of female BomTac:NMRI-Foxn1^nu mice (age 6 weeks, 24-30 g; Taconic, Denmark). These two and the following tumor models were established from adherently grown cells which were either subcutaneously injected in PBS (LoVo, SW480, A-498, Calu-6, NCI-H2122, A549, SK-OV-3, TOV-21G, AsPC-1, PC-3) or were injected with Matrigel (HCC-461, A2780, PANC-1 and Hs 746 T). For the Caki-1 tumor model tumor fragments were passaged in mice. Mice were randomized according to tumor volume when tumors had reached diameters of 6–8 mm. […] Natrosol-treated animals served as vehicle controls (n = 10). Tumor diameters were measured three times weekly using a caliper and volumes were calculated according to the formula “tumor volume = length × diameter^2 × π/6”. Mice were inspected daily for abnormalities and body weight was determined three times weekly. Animals were euthanized at the end of the study or prematurely, based on criteria including weight loss exceeding 20%, tumor necrosis or tumor volumes exceeding 1500 mm^3.
(§4) Statistical evaluation was performed using SAS 8.2 (SAS Institute, Cary, NC, USA) and Proc StatXact (Cytel Software, Cambridge, MA, USA).
(§5) where Td and Cd denote the median of the tumor volume in the treatment group and the control group at day d, respectively. A one-sided increasing Wilcoxon test was applied to compare each experimental group with the vehicle control, the p values were adjusted for multiple comparisons according to Bonferroni–Holm. The level of significance was fixed at α = 5%. An adjusted p value of <0.05 was considered to show a significant difference between groups.

[7] = system: HCC-461 lung xenograft; experiment: Subcutaneous xenograft efficacy; assay type: in vivo, mice
Protocol: as §3, §4, §5

[8] = system: Caki-1 kidney xenograft; experiment: Subcutaneous xenograft efficacy; assay type: in vivo, mice
Protocol: as §3, §4, §5

[9] = system: SK-OV-3 ovarian carcinoma xenograft; experiment: Subcutaneous xenograft efficacy; assay type: in vivo, mice
Protocol: as §3, §4, §5

[10] = system: TOV-21G ovary xenograft; experiment: Subcutaneous xenograft efficacy; assay type: in vivo, mice
Protocol: as §3, §4, §5

[11] = system: A2780 ovary xenograft; experiment: Subcutaneous xenograft efficacy; assay type: in vivo, mice
Protocol: as §3, §4, §5

[12] = system: LoVo colon/rectum xenograft; experiment: Subcutaneous xenograft efficacy; assay type: in vivo, mice
Protocol: as §3, §4, §5

[13] = system: Hs 746T stomach xenograft; experiment: Subcutaneous xenograft efficacy; assay type: in vivo, mice
Protocol: as §3, §4, §5

[14] = system: PANC-1 pancreas xenograft; experiment: Subcutaneous xenograft efficacy; assay type: in vivo, mice
Protocol: as §3, §4, §5

[15] = system: BxPC-3 pancreas adenocarcinoma xenograft; experiment: Subcutaneous xenograft efficacy; assay type: in vivo, mice; details: BxPC-3, 50 mg/kg
Protocol: as §3, §4, §5

[16] = system: PC-3 cells; experiment: Clonogenic assay in soft agar (anchorage-independent growth); assay type: cell-based, human; details: Homo sapiens, PC-3, alamarBlue, read-out: Colony formation EC50 PC-3
Protocol: Clonogenic assays were performed using agarose-containing media. Cells were incubated at 37 °C and 5% CO2 for 14 days. alamarBlue® was used to detect colonies of viable cells (530 nm/590 nm). Data analysis was performed as described above.

[17] = female, BomTac:NMRI-Foxn1^nu, mouse, plasma, single oral dose 50 mg/kg

T2 sequence (Q14289 whole entry): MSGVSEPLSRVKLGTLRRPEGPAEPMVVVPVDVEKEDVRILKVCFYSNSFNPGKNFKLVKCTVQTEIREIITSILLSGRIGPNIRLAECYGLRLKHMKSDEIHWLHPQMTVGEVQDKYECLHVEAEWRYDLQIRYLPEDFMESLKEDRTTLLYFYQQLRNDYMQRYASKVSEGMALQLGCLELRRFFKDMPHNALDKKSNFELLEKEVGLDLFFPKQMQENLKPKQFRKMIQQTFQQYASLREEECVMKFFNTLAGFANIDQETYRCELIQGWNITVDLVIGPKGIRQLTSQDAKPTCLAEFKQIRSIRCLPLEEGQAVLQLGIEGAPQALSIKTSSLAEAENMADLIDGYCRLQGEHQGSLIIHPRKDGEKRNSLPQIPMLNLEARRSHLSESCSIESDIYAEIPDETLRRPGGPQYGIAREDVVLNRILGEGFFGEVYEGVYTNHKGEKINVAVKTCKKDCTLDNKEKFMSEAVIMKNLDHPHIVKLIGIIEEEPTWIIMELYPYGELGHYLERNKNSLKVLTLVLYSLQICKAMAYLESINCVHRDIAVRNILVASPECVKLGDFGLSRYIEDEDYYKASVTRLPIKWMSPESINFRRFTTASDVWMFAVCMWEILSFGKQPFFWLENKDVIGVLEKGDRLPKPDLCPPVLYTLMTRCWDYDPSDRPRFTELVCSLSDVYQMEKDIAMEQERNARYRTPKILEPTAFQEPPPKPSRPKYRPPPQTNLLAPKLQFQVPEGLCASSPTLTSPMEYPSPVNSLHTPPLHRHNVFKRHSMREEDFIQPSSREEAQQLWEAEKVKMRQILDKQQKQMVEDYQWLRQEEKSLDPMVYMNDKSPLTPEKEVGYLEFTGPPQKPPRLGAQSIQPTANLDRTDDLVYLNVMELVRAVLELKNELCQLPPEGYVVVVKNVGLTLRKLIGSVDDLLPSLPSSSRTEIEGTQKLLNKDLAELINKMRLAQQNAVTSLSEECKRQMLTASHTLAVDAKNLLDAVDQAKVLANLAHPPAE
T1 sequence (P07332 whole entry): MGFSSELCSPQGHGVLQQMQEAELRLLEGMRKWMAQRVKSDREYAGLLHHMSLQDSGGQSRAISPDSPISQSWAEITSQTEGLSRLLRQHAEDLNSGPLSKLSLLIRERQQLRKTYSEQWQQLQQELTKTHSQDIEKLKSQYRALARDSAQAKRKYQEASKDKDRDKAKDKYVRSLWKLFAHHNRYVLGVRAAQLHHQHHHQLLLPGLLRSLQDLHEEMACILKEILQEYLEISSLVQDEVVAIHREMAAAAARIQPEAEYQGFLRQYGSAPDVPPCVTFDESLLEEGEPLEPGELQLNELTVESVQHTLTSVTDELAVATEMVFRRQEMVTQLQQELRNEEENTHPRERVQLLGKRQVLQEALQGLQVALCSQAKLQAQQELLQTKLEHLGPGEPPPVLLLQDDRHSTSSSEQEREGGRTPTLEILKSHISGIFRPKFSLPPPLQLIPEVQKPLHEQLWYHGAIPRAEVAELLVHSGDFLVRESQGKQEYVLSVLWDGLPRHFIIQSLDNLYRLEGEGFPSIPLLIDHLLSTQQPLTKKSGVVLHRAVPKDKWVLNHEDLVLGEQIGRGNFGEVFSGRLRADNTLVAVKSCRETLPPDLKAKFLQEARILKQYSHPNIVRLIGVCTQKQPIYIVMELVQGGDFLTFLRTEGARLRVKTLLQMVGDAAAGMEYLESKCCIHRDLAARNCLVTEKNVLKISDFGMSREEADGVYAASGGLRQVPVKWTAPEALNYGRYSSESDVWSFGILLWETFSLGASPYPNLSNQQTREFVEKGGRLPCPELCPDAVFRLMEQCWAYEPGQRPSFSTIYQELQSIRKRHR

COc1cc(C(=O)NC2CCN(C)CC2)c(F)cc1Nc1ncc(C(F)(F)F)c(Oc2cccc3c2C(=O)N(C)C3)n1 [BI 853520]
IC50 [1]: 1040 nM
clearance ([2]; BomTac:NMRI-Foxn1^nu, mouse, plasma, single intravenous dose 5 mg/kg, female nude mice): 36 mL/min/kg
MRT ([2]; BomTac:NMRI-Foxn1^nu, mouse, plasma, single intravenous dose 5 mg/kg, female nude mice, read-out: mean residence time): 3 h
Vd ([2]; BomTac:NMRI-Foxn1^nu, mouse, plasma, single intravenous dose 5 mg/kg, female nude mice, read-out: volume of distribution): 6.6 L/kg
bioavailability [2, 17]: 90%
half-life [2, 17]: 5 h
Tmax ([2]; female, BomTac:NMRI-Foxn1^nu, mouse, single oral dose 50 mg/kg, plasma, read-out: time of maximal concentration): 2 h
AUC ([2]; single oral dose 50 mg/kg): 46 µM·h
maximal concentration ([2]; single oral dose 50 mg/kg, plasma): 4.4 µmol/L
concentration at 24 h ([3]; PC-3 tumor tissue, 50 mg/kg p.o. qdx4, 24 h after dose on day 4, PC-3 tumors, read-out: concentration in tumor tissue): 8.9 µM
Tmax ([3]; PC-3 tumor tissue, po, 50 mg/kg p.o. qdx4, day 4, PC-3 tumors, read-out: time of peak level in tumor tissue): 6 h
concentration at 24 h ([3]; plasma, 50 mg/kg p.o. qdx4, 24 h after dose on day 4, read-out: plasma level): 1.3 µM
IC50 [4]: > 50000 nM
IC50 [5]: 2000 nM
Median TGI ([6]; PC-3, 50 mg/kg once daily per os): 93%
TGI ([6]; PC-3 xenograft, Supplement Table 3): 93%
Median TGI ([7]; HCC-461, 50 mg/kg once daily per os): 102%
TGI ([7]; HCC-461 xenograft, Supplement Table 3): 102%
Median TGI ([8]; Caki-1, 50 mg/kg once daily per os): 66%
TGI ([8]; Caki-1 xenograft, Supplement Table 3): 66%
Median TGI ([9]; SK-OV-3, 50 mg/kg once daily per os): 57%
TGI ([9]; SK-OV-3 xenograft, Supplement Table 3): 57%
TGI ([10]; TOV-21G xenograft, Supplement Table 3): 93%
Median TGI ([10]; TOV-21G, 50 mg/kg once daily per os): 93%
Median TGI ([11]; A2780, 50 mg/kg once daily per os): 89%
TGI ([11]; A2780 xenograft, Supplement Table 3): 89%
TGI ([12]; LoVo xenograft, Supplement Table 3): 14%
Median TGI ([12]; LoVo, 50 mg/kg once daily per os, 50 mg/kg): 14 (n.s.) % and 14%
TGI ([13]; Hs 746T xenograft, Supplement Table 3): 72%
Median TGI ([13]; Hs 746T, 50 mg/kg once daily per os): 72%
Median TGI ([14]; PANC-1, 50 mg/kg once daily per os): 83%
TGI ([14]; PANC-1 xenograft, Supplement Table 3): 83%
Median TGI [15]: 29%
EC50 [16]: 3 nM
